Data reported in patent publication EP4309647A1, “G[…] FRACTIONS OF PINE NUT SKIN, METHODS AND USES THEREOF” (Universidade de Aveiro, priority 2022, dated 2024).

Assay: Effect on cholesterol solubility / bioaccessibility in an in vitro intestinal model (GDCA bile salt micelles, 13C NMR quantification of [4-13C]cholesterol)
Settings: cholesterol 3.5 mM, amount equivalent to 3.5 mM β-sitosterol
Method: In an embodiment, to evaluate the effect of the lipophilic extracts on cholesterol solubility, an in vitro intestinal model with glycodehoxycholic acid (GDCA) at 37 °C and pH 7.4 was used.
In an embodiment, solutions of cholesterol labeled with carbon-13 at carbon 4 ([4-^13C]cholesterol) with or without pine nut skin extracts was prepared in azeotropic mixtures of chloroform/methanol (87:13, v/v). Films are formed by solvent evaporation under a stream of nitrogen and heating. To remove possible traces of organic solvents, the films with cholesterol were placed on a desiccator under vacuum during, for example, 30 minutes at room temperature. […]
In an embodiment, to evaluate this effect, the bioaccessibility of labelled cholesterol([4-^13C]cholesterol) was measured by ^13C NMR, using an in vitro intestinal model composed of glycodeoxycholic acid bile salt micelles and lipophilic extracts from pine nut skin and from the two separated fractions, added individually.
In an embodiment, the quantification of cholesterol by ^13C NMR was possible due to the utilization of an isotopomer of cholesterol fully enriched in ^13C in carbon 4, which has a typical peak at 44 ppm, distinguishable from GDCA resonances. […] This methodology allows to quantify [4-^13C] cholesterol which is emulsified on the bile salt micelles, that is, the available quantity which is likely to be absorbed (bioaccessible). […]

Compound: CC[C@H](CC[C@@H](C)[C@H]1CC[C@H]2[C@@H]3CC=C4C[C@@H](O)CC[C@]4(C)[C@H]3CC[C@]12C)C(C)C [β-Sitosterol]
- cholesterol emulsified (solubilized, bioaccessible) (GDCA 50 mM): 1.6 mM
- reduction of cholesterol solubility / bioaccessability relatively to the control (control = GDCA and [4-13C]cholesterol): 49%
